{"source": "patent US4393003A", "about": "“β-Lactamase inhibitors” (Hoffmann-La Roche Inc., priority 1981, dated 1983)", "key": {"[1]": {"target": "T1, inducible penicillinase from Staphylococcus aureus 1059B (Staphylococcus aureus, UniProt P00807)", "T1 construct": "the inducible penicillinase from Staphylococcus aureus 1059B; endogenous in cells; host or cells: Staphylococcus aureus 1059B", "T1 sequence (P00807 25-281)": "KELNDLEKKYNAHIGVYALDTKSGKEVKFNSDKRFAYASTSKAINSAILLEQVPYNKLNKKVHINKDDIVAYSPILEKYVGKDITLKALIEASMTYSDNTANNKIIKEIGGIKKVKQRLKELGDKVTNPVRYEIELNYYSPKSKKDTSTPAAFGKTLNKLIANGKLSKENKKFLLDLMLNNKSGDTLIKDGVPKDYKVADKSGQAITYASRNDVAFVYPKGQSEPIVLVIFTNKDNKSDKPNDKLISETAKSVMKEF", "assay": "Cell-free enzyme assay, inhibition of nitrocefin hydrolysis", "type": "biochemical", "description": "(§1) The test compound is preincubated with enzyme for 20 min. at 30° C. and pH 7. Chromogenic cephalosporin substrate, nitrocefin, is added and its initial rate of hydrolysis is recorded spectrophotometrically. Three enzyme preparations were employed:\n(a) the inducible penicillinase from Staphylococcus aureus 1059B,\n(§2) Included for comparison purposes were the antibiotics cloxacillin and dicloxacillin. I50 (μM) is calculated as the concentration necessary to inhibit the rate of nitrocefin hydrolysis by 50%."}, "[2]": {"target": "T2, constitutive broad-spectrum TEM type beta-lactamase mediated by the resistance transfer factor R1 in Escherichia coli 1263B (Escherichia coli, UniProt P62593)", "T2 construct": "mediated by the resistance transfer factor R1 in Escherichia coli 1263B; endogenous in cells; host or cells: Escherichia coli 1263B carrying resistance transfer factor R1", "T2 sequence (P62593 24-286 limits assumed)": "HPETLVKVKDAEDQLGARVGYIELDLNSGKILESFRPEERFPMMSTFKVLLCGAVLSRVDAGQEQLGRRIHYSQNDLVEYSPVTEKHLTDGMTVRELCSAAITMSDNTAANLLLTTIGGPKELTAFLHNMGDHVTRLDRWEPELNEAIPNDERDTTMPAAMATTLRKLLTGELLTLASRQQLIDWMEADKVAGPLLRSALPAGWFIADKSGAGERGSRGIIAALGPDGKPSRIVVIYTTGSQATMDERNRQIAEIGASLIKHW", "assay": "Cell-free enzyme assay, inhibition of nitrocefin hydrolysis", "type": "biochemical", "settings": "preincubated with enzyme 20 min, 30° C., pH 7; nitrocefin substrate; read-out: I50, Escherichia coli R1", "description": "as §1\n(b) the constitutive broad-spectrum TEM type beta-lactamase mediated by the resistance transfer factor R1 in Escherichia coli 1263B, and\nas §2"}, "[3]": {"target": "T3, type Ia cephalosporinase from Enterobacter cloacae (Enterobacter cloacae, UniProt P05364)", "T3 construct": "purchased Miles Laboratories", "T3 sequence (P05364 21-381)": "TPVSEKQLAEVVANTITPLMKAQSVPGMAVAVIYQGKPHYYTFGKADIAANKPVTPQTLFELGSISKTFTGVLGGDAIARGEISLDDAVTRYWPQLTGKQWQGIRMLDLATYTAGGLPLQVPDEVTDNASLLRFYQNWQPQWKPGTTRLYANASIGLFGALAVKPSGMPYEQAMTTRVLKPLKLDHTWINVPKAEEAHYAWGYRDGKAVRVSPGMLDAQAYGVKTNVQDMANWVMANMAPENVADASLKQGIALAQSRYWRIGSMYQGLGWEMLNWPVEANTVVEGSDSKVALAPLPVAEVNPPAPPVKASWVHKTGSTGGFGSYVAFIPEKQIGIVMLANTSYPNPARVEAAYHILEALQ", "assay": "Cell-free enzyme assay, inhibition of nitrocefin hydrolysis", "type": "biochemical", "description": "as §1\n(c) the type Ia cephalosporinase from Enterobacter cloacae purchased from Miles Laboratories.\nas §2"}, "E. Coli K12R1": {"tested_on": "E. Coli K12R1", "assay": "In vitro MIC by agar dilution, alone and mecillinam potentiation", "type": "cell-based", "settings": "single agent, Mueller-Hinton agar, overnight 37° C.", "description": "(§3) The efficacy of putative β-lactamase inhibitors is assessed by determining the effect of the test compounds on the minimal inhibitory concentrations (MICs) of β-lactamase-sensitive antibiotics against bacterial strains known to produce β-lactamases.\n(§4) The antibacterial activity of the β-lactamase inhibitor against the test strains is determined by a standard agar dilution method. Serial two-fold dilutions of the β-lactamase inhibitor are prepared in water to give concentrations 10 times the final desired concentrations. The aqueous dilutions are then further diluted 1:10 in Mueller-Hinton (MH) agar. These agar mixtures are poured into petri plates and allowed to harden. Each plate, including a drug-free control plate, is inoculated by means of a Steers replicator with 0.05 mL of 10^-4 dilutions of the test organisms. The 10^'4 dilutions of the organisms are prepared in MH broth from overnight TS broth cultures. The plates are examined for growth after overnight incubation at 37° C. The lowest drug concentration at which three or fewer colonies are observed is considered to be the MIC.\n(§5) The β-lactamase inhibitor is then tested for potentiation of the antibiotic mecillinam. Aqueous solutions are prepared containing serial two-fold dilutions of mecillinam in the presence of the β-lactamase inhibitor at a constant concentration 2-4 fold less than its MIC for the most sensitive of the test organisms. The same procedure as above is then followed. Controls include a drug-free plate and a plate containing the β-lactamase inhibitor at the concentration used in the test. The MIC of mecillinam as a single agent is also determined at the same time."}, "P. Aeruginosa 5700": {"tested_on": "P. Aeruginosa 5700", "assay": "In vitro MIC by agar dilution, alone and mecillinam potentiation", "type": "cell-based", "description": "as §3, §4, §5"}, "E. Coli 7289": {"tested_on": "E. Coli 7289", "assay": "In vitro MIC by agar dilution, alone and mecillinam potentiation", "type": "cell-based", "settings": "single agent, Mueller-Hinton agar, overnight 37° C.", "description": "as §3, §4, §5"}, "S. Marcescens S5": {"tested_on": "S. Marcescens S5", "assay": "In vitro MIC by agar dilution, alone and mecillinam potentiation", "type": "cell-based", "settings": "single agent, Mueller-Hinton agar, overnight 37° C.", "description": "as §3, §4, §5"}, "E. Coli ST 323": {"tested_on": "E. Coli ST 323", "assay": "In vitro MIC by agar dilution, alone and mecillinam potentiation", "type": "cell-based", "settings": "single agent, Mueller-Hinton agar, overnight 37° C.", "description": "as §3, §4, §5"}, "E. Cloacae P99": {"tested_on": "E. Cloacae P99", "assay": "In vitro MIC by agar dilution, alone and mecillinam potentiation", "type": "cell-based", "description": "as §3, §4, §5"}, "[4]": {"settings": "preincubated with enzyme 20 min, 30° C., pH 7, nitrocefin substrate, read-out: I50, Staphylococcus aureus"}, "[5]": {"settings": "preincubated with enzyme 20 min, 30° C., pH 7, nitrocefin substrate, read-out: I50, Enterobacter cloacae"}, "[6]": {"settings": "Escherichia coli, read-out: MIC"}}, "note": "Read-outs that look alike come from different tables or passages of the source.", "data": [{"smiles": "Cc1onc(-c2ccccc2Cl)c1C(=O)N[C@@H]1C(=O)N2[C@@H]1SC(C)(C)[C@@H]2C(=O)O", "note": "[Cloxacillin]", "values": [{"measurement": "IC50", "setting": "[1]; [4]", "value": 365, "unit": "µM"}, {"measurement": "IC50", "setting": "[2]", "value": 68, "unit": "µM"}, {"measurement": "IC50", "setting": "[3]; [5]", "value": 0.0015, "unit": "µM"}]}, {"smiles": "CC1(C)S[C@@H]2[C@H](/N=C/N3CCCCCC3)C(=O)N2[C@H]1C(=O)O", "note": "[Mecillinam, mecillinam]", "values": [{"measurement": "MIC", "setting": "E. Coli K12R1; [6]", "value": 1, "unit": "µg/mL"}, {"measurement": "MIC", "setting": "P. Aeruginosa 5700; Pseudomonas aeruginosa", "value": "> 128", "unit": "µg/mL"}, {"measurement": "MIC", "setting": "E. Coli 7289; [6]", "value": 32, "unit": "µg/mL"}, {"measurement": "MIC", "setting": "S. Marcescens S5; Serratia marcescens, read-out: MIC", "value": 4, "unit": "µg/mL"}, {"measurement": "MIC", "setting": "E. Coli ST 323; [6]", "value": 4, "unit": "µg/mL"}, {"measurement": "MIC", "setting": "E. Cloacae P99; Enterobacter cloacae", "value": 0.03, "unit": "µg/mL"}]}, {"smiles": "Cc1onc(-c2c(Cl)cccc2Cl)c1C(=O)N[C@@H]1C(=O)N2[C@@H]1SC(C)(C)[C@@H]2C(=O)O", "note": "[Dicloxacillin]", "values": [{"measurement": "IC50", "setting": "[1]; [4]", "value": 96, "unit": "µM"}, {"measurement": "IC50", "setting": "[2]", "value": 32, "unit": "µM"}, {"measurement": "IC50", "setting": "[3]; [5]", "value": 0.0014, "unit": "µM"}]}, {"smiles": "C[C@]12C[C@@]1(C(=O)O)N1C(=O)C[C@H]1S2(=O)=O", "note": "[compound of formula I, [2S-(2α,4α,6α)]-4-Methyl-8-oxo-5-thia-1-azatricyclo[4.2.0.0^2,4]octane-2-carboxylic acid 5,5-dioxide]", "values": [{"measurement": "MIC", "setting": "E. Coli K12R1", "value": "Inert"}, {"measurement": "MIC", "setting": "P. Aeruginosa 5700; P. Aeruginosa 5700, single agent, Mueller-Hinton agar, overnight 37° C.", "value": "Inert"}, {"measurement": "MIC", "setting": "E. Coli 7289", "value": "Inert"}, {"measurement": "MIC", "setting": "S. Marcescens S5", "value": "Inert"}, {"measurement": "MIC", "setting": "E. Coli ST 323", "value": "Inert"}, {"measurement": "MIC", "setting": "E. Cloacae P99; E. Cloacae P99, single agent, Mueller-Hinton agar, overnight 37° C.", "value": "Inert"}, {"measurement": "IC50", "setting": "[1]", "value": 6.7, "unit": "µM"}, {"measurement": "IC50", "setting": "[2]", "value": 1.1, "unit": "µM"}, {"measurement": "IC50", "setting": "[3]", "value": 69, "unit": "µM"}]}]}
